Measured values from the CheMixHub ionic liquid set.

Assay: xn = mol fraction of the nth substance listed
Details: 100 kPa

CCCCCCCC[n+]1ccccc1.[Br-] + O
Details	electrical conductivity [S/m]
288.15 K, x1 = 0.0006303	0.31
288.15 K, x1 = 0.001206	0.47
288.15 K, x1 = 0.001745	0.62
288.15 K, x1 = 0.002301	0.78
288.15 K, x1 = 0.00309	0.98
288.15 K, x1 = 0.003806	1.12
288.15 K, x1 = 0.004431	1.22
288.15 K, x1 = 0.005002	1.29
288.15 K, x1 = 0.005537	1.35
288.15 K, x1 = 0.006018	1.4
288.15 K, x1 = 0.006445	1.44
288.15 K, x1 = 0.006854	1.48
288.15 K, x1 = 0.007227	1.51
288.15 K, x1 = 0.007547	1.54
293.15 K, x1 = 0.0006303	0.34
293.15 K, x1 = 0.001206	0.54
293.15 K, x1 = 0.001745	0.7
293.15 K, x1 = 0.002301	0.88
293.15 K, x1 = 0.00309	1.11
293.15 K, x1 = 0.003788	1.27
293.15 K, x1 = 0.004431	1.39
293.15 K, x1 = 0.005002	1.47
293.15 K, x1 = 0.00552	1.54
293.15 K, x1 = 0.006	1.59
293.15 K, x1 = 0.006445	1.65
293.15 K, x1 = 0.006837	1.69
293.15 K, x1 = 0.00721	1.73
293.15 K, x1 = 0.007547	1.76
298.15 K, x1 = 0.0006303	0.38
298.15 K, x1 = 0.001206	0.6
298.15 K, x1 = 0.001745	0.79
298.15 K, x1 = 0.002301	0.99
298.15 K, x1 = 0.00309	1.25
298.15 K, x1 = 0.003788	1.43
298.15 K, x1 = 0.004431	1.57
298.15 K, x1 = 0.005002	1.67
298.15 K, x1 = 0.00552	1.75
298.15 K, x1 = 0.006	1.81
298.15 K, x1 = 0.006428	1.87
298.15 K, x1 = 0.006837	1.93
298.15 K, x1 = 0.00721	1.98
298.15 K, x1 = 0.007529	2.02
303.15 K, x1 = 0.0006303	0.45
303.15 K, x1 = 0.001206	0.67
303.15 K, x1 = 0.001745	0.88
303.15 K, x1 = 0.002301	1.1
303.15 K, x1 = 0.00309	1.39
303.15 K, x1 = 0.003788	1.6
303.15 K, x1 = 0.004413	1.75
303.15 K, x1 = 0.004985	1.87
303.15 K, x1 = 0.005502	1.98
303.15 K, x1 = 0.005983	2.07
303.15 K, x1 = 0.006428	2.14
303.15 K, x1 = 0.006819	2.21
303.15 K, x1 = 0.007192	2.27
303.15 K, x1 = 0.007529	2.32
308.15 K, x1 = 0.0006303	0.48
308.15 K, x1 = 0.001206	0.73
308.15 K, x1 = 0.001745	0.97
308.15 K, x1 = 0.002283	1.21
308.15 K, x1 = 0.003072	1.54
308.15 K, x1 = 0.00377	1.77
308.15 K, x1 = 0.004413	1.98
308.15 K, x1 = 0.004985	2.13
308.15 K, x1 = 0.005502	2.23
308.15 K, x1 = 0.005983	2.33
308.15 K, x1 = 0.00641	2.42
308.15 K, x1 = 0.006819	2.49
308.15 K, x1 = 0.007192	2.56
308.15 K, x1 = 0.007512	2.62

CCCCn1cc[n+](C)c1C.C[C@@H](O)[C@H](N)C(=O)[O-] + O
Details	viscosity [mPa·s]
288.15 K, x1 = 0.4927	331
293.15 K, x1 = 0.2985	102
293.15 K, x1 = 0.7003	447
298.15 K, x1 = 0.7003	307
298.15 K, x1 = 0.8001	402
308.15 K, x1 = 0.1919	24.8
308.15 K, x1 = 0.4004	63
308.15 K, x1 = 0.599	122
308.15 K, x1 = 0.8001	199
313.15 K, x1 = 0.2985	26.1
313.15 K, x1 = 0.599	78
318.15 K, x1 = 0.2985	21.5
318.15 K, x1 = 0.4004	33.1
318.15 K, x1 = 0.4927	45.9
318.15 K, x1 = 0.7003	77
318.15 K, x1 = 0.8001	92
